Consider 2 compounds from ChEMBL document CHEMBL1135751, “A trypanocidal phenazine derived from beta-lapachone” (2002).

In the test the test system is Trypanosoma cruzi. The experiment in a line: Trypanocidal effect on bloodstream trypomastigotes of Trypanosoma cruzi; ED50/24h. The format is functional.

`CN(C)c1ccc(C(=C2C=CC(=[N+](C)C)C=C2)c2ccc(N(C)C)cc2)cc1`: the ED50 is 536 µM. The result for `CC1(C)CCc2c(c3ccccc3c3nc4cc(Nc5ccccc5)/c(=N/c5ccccc5)cc-4n(-c4ccccc4)c23)O1` reads 61.3 µM.
